Test results published in US20230167073A1 (Teijin Pharma Limited, priority 2020, published 2023).

target: T1, Human TRPC6 (Homo sapiens, UniProt Q9Y210); assay: Evaluation of TRPC6 channel inhibitory activity (1), FLIPR Calcium 5 Assay Kit, OAG stimulation (Compound Nos. 1-1293); type: cell-based; details: Human TRPC6 stably-expressing cells, OAG 30 μM, FLIPR Calcium 5 Assay Kit; read-out: Inhibitory activity (pIC50 class) (converted)
T1 construct: expressed in transfected cells
T1 sequence (Q9Y210 1-931): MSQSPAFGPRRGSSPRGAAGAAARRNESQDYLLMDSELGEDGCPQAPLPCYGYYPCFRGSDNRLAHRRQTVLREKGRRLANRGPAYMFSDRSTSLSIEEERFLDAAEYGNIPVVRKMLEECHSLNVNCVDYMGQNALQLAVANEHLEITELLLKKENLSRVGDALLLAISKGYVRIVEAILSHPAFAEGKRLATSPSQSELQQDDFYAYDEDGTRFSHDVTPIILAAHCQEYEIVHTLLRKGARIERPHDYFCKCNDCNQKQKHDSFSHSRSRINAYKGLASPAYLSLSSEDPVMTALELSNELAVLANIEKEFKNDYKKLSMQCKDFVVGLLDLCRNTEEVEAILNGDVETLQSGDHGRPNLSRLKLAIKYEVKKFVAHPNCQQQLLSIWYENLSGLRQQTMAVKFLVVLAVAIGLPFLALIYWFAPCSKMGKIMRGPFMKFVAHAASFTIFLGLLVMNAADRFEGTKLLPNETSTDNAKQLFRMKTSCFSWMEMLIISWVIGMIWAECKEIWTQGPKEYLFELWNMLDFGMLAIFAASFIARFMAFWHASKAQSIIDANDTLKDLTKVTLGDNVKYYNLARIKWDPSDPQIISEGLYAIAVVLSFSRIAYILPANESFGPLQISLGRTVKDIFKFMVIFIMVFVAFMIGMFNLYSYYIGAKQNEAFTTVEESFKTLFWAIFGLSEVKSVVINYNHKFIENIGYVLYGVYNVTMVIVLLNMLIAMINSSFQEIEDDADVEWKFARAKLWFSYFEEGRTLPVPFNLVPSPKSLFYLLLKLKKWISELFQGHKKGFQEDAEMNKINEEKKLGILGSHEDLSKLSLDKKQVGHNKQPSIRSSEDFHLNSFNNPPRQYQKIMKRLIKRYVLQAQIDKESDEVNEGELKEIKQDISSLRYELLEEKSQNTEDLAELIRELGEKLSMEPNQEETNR
Method in brief: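 Cells stably expressing human TRPC6, plated 24 h before, were loaded 30 min with Calcium 5 dye plus probenecid in HEPES-HBSS. Compound was added 20 min before OAG (30 μM final) and fluorescence tracked on FLIPR. Inhibition normalised to no-compound and no-compound/no-OAG wells; pIC50 from four-parameter fit, reported as +/++/+++ categories.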

Row | SMILES | IC50 [nM]
1 | Cn1nc(N2CCCCC2)cc1Oc1cc(C#N)ccc1-c1ccc(CCN)cn1 [compound 541, 4-[5-(2-aminoethyl)pyridin-2-yl]-3-(2-methyl-5-piperidin-1-ylpyrazol-3-yl)oxybenzonitrile] | < 10
2 | Cn1nc(N2CCCC2)cc1Oc1cc(C#N)ccc1-c1ccc(CCN)cn1 [compound 542, 4-[5-(2-aminoethyl)pyridin-2-yl]-3-(2-methyl-5-pyrrolidin-1-ylpyrazol-3-yl)oxybenzonitrile] | < 10
3 | CN(C)c1cc(Oc2cc(C#N)ccc2-c2ccc(CCN)cn2)n(C)n1 [compound 543, 4-[5-(2-aminoethyl)pyridin-2-yl]-3-[5-(dimethylamino)-2-methylpyrazol-3-yl]oxybenzonitrile] | < 10
4 | Cn1nc(N2CCCCC2)cc1Oc1cc(C#N)ccc1-c1ccc([C@H](O)CN)cn1 [compound 544, 4-[5-[(1S)-2-amino-1-hydroxyethyl]pyridin-2-yl]-3-(2-methyl-5-pipeddin-1-ylpyrazol-3-yl)oxybenzonitrile] | < 10
5 | Cn1nc(N2CCCC2)cc1Oc1cc(C#N)ccc1-c1ccc([C@H](O)CN)cn1 [compound 545, 4-[5-[(1S)-2-amino-1-hydroxyethyl]pyridin-2-yl]-3-(2-methyl-5-pyrrolidin-1-ylpyrazol-3-yl)oxybenzonitrile] | 10 to 1000
6 | CN(C)c1cc(Oc2cc(C#N)ccc2-c2ccc([C@H](O)CN)cn2)n(C)n1 [compound 546, 4-[5-[(1S)-2-amino-1-hydroxyethyl]pyridin-2-yl]-3-[5-(dimethylamino)-2-methylpyrazol-3-yl]oxybenzonitrile] | 10 to 1000
7 | CC(=O)Nc1cc(Oc2cc(C#N)ccc2-c2ccc(CCN)cn2)n(C)n1 [compound 547, N-[5-[2-[5-(2-aminoethyl)pyridin-2-yl]-5-cyanophenoxy]-1-methylpyrazol-3-yl]acetamide] | 10 to 1000
8 | CC(=O)Nc1cc(Oc2cc(C#N)ccc2-c2ccc([C@H](O)CN)cn2)n(C)n1 [compound 548, N-[5-[2-[5-[(1S)-2-amino-1-hydroxyethyl]pyridin-2-yl]-5-cyanophenoxy]-1-methylpyrazol-3-yl]acetamide] | > 1000
9 | CC(C)Nc1cc(Oc2cc(C#N)ccc2-c2ccc([C@H](O)CN)cn2)n(C)n1 [compound 549, 4-[5-[(1S)-2-amino-1-hydroxyethyl]pyridin-2-yl]-3-[2-methyl-5-(propan-2-ylamino)pyrazol-3-yl]oxybenzonitrile] | 10 to 1000
10 | Cc1cc(Oc2cc(C#N)ccc2-c2ccc([C@H](O)CN)cn2)cc(N2CCOC[C@H]2C)n1 [compound 550, 4-[5-[(1S)-2-amino-1-hydroxyethyl]pyridin-2-yl]-3-[2-methyl-6-[(3R)-3-methylmorpholin-4-yl]pyridin-4-yl]oxybenzonitrile] | < 10
11 | Cn1nc(C2CC2)cc1Oc1cc(C#N)ccc1-c1cc(C(=O)NCCN)ccn1 [compound 551, N-(2-aminoethyl)-2-[4-cyano-2-(5-cyclopropyl-2-methylpyrazol-3-yl)oxyphenyl]pyridine-4-carboxamide] | 10 to 1000
12 | Cn1nc(C2CC2)cc1Oc1cc(C#N)ccc1-c1cc(C(=O)N2CCNCC2)ccn1 [compound 552, 3-(5-cyclopropyl-2-methylpyrazol-3-yl)oxy-4-[4-(piperazine-1-carbonyl)pyridin-2-yl]benzonitrile] | > 1000
13 | Cn1nc(C2CC2)cc1Oc1cc(C#N)ccc1-c1cc(C(=O)N2CCC(N)CC2)ccn1 [compound 553, 4-[4-(4-aminopiperidine-1-carbonyl)pyridin-2-yl]-3-(5-cyclopropyl-2-methylpyrazol-3-yl)oxybenzonitrile] | > 1000
14 | Cn1nc(C2CC2)cc1Oc1cc(C#N)ccc1-c1cc(C(=O)N2CCC[C@@H](N)C2)ccn1 [compound 554, 4-[4-[(3R)-3-aminopiperidine-1-carbonyl]pyridin-2-yl]-3-(5-cyclopropyl-2-methylpyrazol-3-yl)oxybenzonitrile] | > 1000

Second part, the compound after the results:

Row | IC50 [nM] | SMILES
15 | > 1000 | Cn1nc(C2CC2)cc1Oc1cc(C#N)ccc1-c1cc(C(=O)N2CCC[C@H](N)C2)ccn1 [compound 555, 4-[4-[(3S)-3-aminopiperidine-1-carbonyl]pyridin-2-yl]-3-(5-cyclopropyl-2-methylpyrazol-3-yl)oxybenzonitrile]
16 | 10 to 1000 | Cn1nc(C2CC2)cc1Oc1cc(C#N)ccc1-c1cc(OCCN)ccn1 [compound 556, 4-[4-(2-aminoethoxy)pyridin-2-yl]-3-(5-cyclopropyl-2-methylpyrazol-3-yl)oxybenzonitrile]
17 | 10 to 1000 | Cn1nc(Oc2cc(C#N)ccc2-c2ccc(CCN)cn2)cc1N1CCOCC1 [compound 557, 4-[5-(2-aminoethyl)pyridin-2-yl]-3-(1-methyl-5-morpholin-4-ylpyrazol-3-yl)oxybenzonitrile]
18 | 10 to 1000 | Cc1nc(Oc2cc(C#N)ccc2-c2ccc([C@H](O)CN)cn2)cc(N2CCO[C@@H](C)C2)n1 [compound 558, 4-[5-[(1S)-2-amino-1-hydroxyethyl]pyridin-2-yl]-3-[2-methyl-6-[(2S)-2-methylmorpholin-4-yl]pyrimidin-4-yl]oxybenzonitrile]
19 | 10 to 1000 | Cc1nc(Oc2cc(C#N)ccc2-c2ncc([C@H](O)CN)cn2)cc(N2CCO[C@@H](C)C2)n1 [compound 559, 4-[5-[(1S)-2-amino-1-hydroxyethyl]pyrimidin-2-yl]-3-[2-methyl-6-[(2S)-2-methylmorpholin-4-yl]pyrimidin-4-yl]oxybenzonitrile]
20 | 10 to 1000 | Cc1nc(Oc2cc(C#N)ccc2-c2ccc([C@H](O)CN)cn2)cc(N2CCOC(C)(C)C2)n1 [compound 560, 4-[5-[(1S)-2-amino-1-hydroxyethyl]pyridin-2-yl]-3-[6-(2,2-dimethylmorpholin-4-yl)-2-methylpyrimidin-4-yl]oxybenzonitrile]
21 | 10 to 1000 | Cc1nc(Oc2cc(C#N)ccc2-c2ncc([C@H](O)CN)cn2)cc(N2CCOC(C)(C)C2)n1 [compound 561, 4-[5-[(1S)-2-amino-1-hydroxyethyl]pyrimidin-2-yl]-3-[6-(2,2-dimethylmorpholin-4-yl)-2-methylpyrimidin-4-yl]oxybenzonitrile]
22 | < 10 | Cc1cc(Oc2cc(C#N)ccc2-c2ccc(CC3(N)COC3)cn2)cc(N2CCOCC2)n1 [compound 562, 4-[5-[(3-aminooxetan-3-yl)methyl]pyridin-2-yl]-3-(2-methyl-6-morpholin-4-ylpyridin-4-yl)oxybenzonitrile]
23 | > 1000 | Cc1cc(Oc2cc(C#N)ccc2-c2ncc(OC3CNC3)cn2)cc(N2CCOCC2)n1 [compound 563, 4-[5-(azetidin-3-yloxy)pyrimidin-2-yl]-3-(2-methyl-6-morpholin-4 ylpyridin-4-yl)oxybenzonitrile]
24 | 10 to 1000 | Cc1cc(Oc2cc(C#N)ccc2-c2ccc(OC3CNC3)cn2)cc(N2CCOCC2)n1 [compound 564, 4-[5-(azetidin-3-yloxy)pyridin-2-yl]-3-(2-methyl-6-morpholin-4-ylpyridin-4-yl)oxybenzonitrile]
25 | > 1000 | Cc1cc(Oc2cc(C#N)ccc2-c2ccc(N3CC[C@H](N)C3=O)cn2)cc(N2CCOCC2)n1 [compound 565, 4-[5-[(3S)-3-amino-2-oxopyrrolidin-1-yl]pyridin-2-yl]-3-(2-methyl-6-morpholin-4-ylpyridin-4-yl)oxybenzonitrile]
26 | 10 to 1000 | Cc1cc(Oc2cc(C#N)ccc2-c2ccn(CCN)c(=O)c2)cc(N2CCOCC2)n1 [compound 566, 4-[1-(2-aminoethyl)-2-oxopyridin-4-yl]-3-(2-methyl-6-morpholin-4-ylpyridin-4-yl)oxybenzonitrile]
27 | 10 to 1000 | Cc1cc(Oc2cc(C#N)ccc2-c2ccnc(OCCN)c2)cc(N2CCOCC2)n1 [compound 567, 4-[2-(2-aminoethoxy)pyridin-4-yl]-3-(2-methyl-6-morpholin-4-ylpyridin-4-yl)oxybenzonitrile]
28 | > 1000 | Cc1cc(Oc2cc(C#N)ccc2-c2ccc(N3CC(N)CC3=O)cn2)cc(N2CCOCC2)n1 (centres unmarked) [compound 568, 4-[5-(4-amino-2-oxopyrrolidin-1-yl)pyridin-2-yl]-3-(2-methyl-6-morpholin-4-ylpyridin-4-yl)oxybenzonitrile]
29 | > 1000 | Cc1cc(Oc2cc(C#N)ccc2-c2ccc(N3CC[C@@H](N)C3=O)cn2)cc(N2CCOCC2)n1 [compound 569, 4-[5-[(3R)-3-amino-2-oxopyrrolidin-1-yl]pyridin-2-yl]-3-(2-methyl-6-morpholin-4-ylpyridin-4-yl)oxybenzonitrile]
